The values that follow come from ChEMBL document CHEMBL1155531, “Structure guided design of 5-arylindazole glucocorticoid receptor agonists and antagonists” (J Med Chem, 2010).

SMILES strings stand for the structures.

The target in data set [1] is T1, Glucocorticoid receptor (Homo sapiens, UniProt P04150).
T1 sequence (P04150 whole entry): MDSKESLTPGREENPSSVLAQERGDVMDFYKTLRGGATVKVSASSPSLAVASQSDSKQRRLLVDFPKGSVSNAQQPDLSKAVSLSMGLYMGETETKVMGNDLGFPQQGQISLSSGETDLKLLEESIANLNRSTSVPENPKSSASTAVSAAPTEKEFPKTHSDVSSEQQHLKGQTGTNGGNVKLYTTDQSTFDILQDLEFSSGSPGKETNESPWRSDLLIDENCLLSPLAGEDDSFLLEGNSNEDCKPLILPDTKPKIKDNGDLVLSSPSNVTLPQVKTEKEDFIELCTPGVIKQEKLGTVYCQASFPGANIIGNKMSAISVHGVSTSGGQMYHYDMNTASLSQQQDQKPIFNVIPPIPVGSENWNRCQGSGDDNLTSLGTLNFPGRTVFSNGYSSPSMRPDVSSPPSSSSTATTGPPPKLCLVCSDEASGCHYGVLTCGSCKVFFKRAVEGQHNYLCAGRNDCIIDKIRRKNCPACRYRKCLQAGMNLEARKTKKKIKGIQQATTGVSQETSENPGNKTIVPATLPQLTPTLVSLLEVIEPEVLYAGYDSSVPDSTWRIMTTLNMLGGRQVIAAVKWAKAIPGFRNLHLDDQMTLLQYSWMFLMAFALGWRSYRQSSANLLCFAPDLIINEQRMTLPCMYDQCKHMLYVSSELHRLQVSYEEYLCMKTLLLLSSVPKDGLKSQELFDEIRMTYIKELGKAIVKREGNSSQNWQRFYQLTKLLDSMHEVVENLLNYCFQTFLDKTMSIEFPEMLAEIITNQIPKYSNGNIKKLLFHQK
The data set can be described thus: Activity at GR in human A549 cells by NF-kappaB transrepression assay. It counts as cell-based.

In data set [2] the target is T1, Glucocorticoid receptor. The data set can be described thus: Agonist activity at GR in human A549 cells transfected with luciferase gene linked to MMTV promoter assessed as luciferase transactivation activity after 24 hrs. Format: functional, cell-based.
A short description of data set [3]: Antiinflammatory activity in human primary synovial fibroblasts assessed as inhibition of IL1-induced IL6 release after 18 hrs by MSD technology. It counts as functional.
Data set [4] in a line: Antiinflammatory activity in human primary synovial fibroblasts assessed as inhibition of IL1-induced MMP1 release after 18 hrs by MSD technology. Format: functional.
The subject of a further data set is Hepatocyte. Briefly: Toxicity in human hepatocytes assessed as increase in PEPCK mRNA level after 18 hrs by PCR. Format: cell-based.
The nature of data set [5]: Elimination half life in CD rat at 1 mg/kg, po and 1 mg/kg, iv. It counts as ADME, organism-based. The settings on record: in vivo, read-out: beta t1/2 (converted).
A short description of data set [6]: Oral bioavailability in CD rat at 1 mg/kg. It counts as ADME, organism-based. As to conditions: in vivo.
The nature of data set [7]: Volume of distribution at steady state in DBA1 mouse at 1 mg/kg, po and 1 mg/kg, iv. It counts as ADME, organism-based. The settings on record: in vivo, read-out: Vdss.
Data set [8] in a line: Elimination half life in DBA1 mouse at 1 mg/kg, po and 1 mg/kg, iv. Format: ADME, organism-based. The settings on record: in vivo, read-out: beta t1/2 (converted).
A short description of data set [9]: Oral bioavailability in DBA1 mouse at 1 mg/kg. It counts as ADME, organism-based. The settings on record: in vivo.
The nature of data set [10]: Tmax in CD rat at 1 mg/kg, po. The settings on record: in vivo. Format: ADME, organism-based. More on the design: dose 1 mg/kg, route oral.
Data set [11] is described as follows: Relative fraction unbound in mouse assessed as ratio of fraction unbound in mouse at 10 mg/kg, po to IC50 for NF-kappaB transrepression activity in A549 cells expressing MMTV reporter gene. More on the design: dose 10 mg/kg, route oral. It counts as ADME, organism-based. The settings on record: in vivo.
The nature of data set [12]: Plasma concentration in mouse bearing mouse NIH-3T3 cells integrated with MMTV reporter gene at 1 mg/kg, po after 1 hr. Format: ADME, organism-based, NIH3T3. More on the design: dose 1 mg/kg, route oral.
Data set [13] in a line: Relative plasma concentration in mouse assessed as ratio of plasma concentration in mouse at 1 mg/kg, po to IC50 for NF-kappaB transrepression activity in A549 cells expressing MMTV reporter gene. Format: ADME, organism-based. Also noted: dose 1 mg/kg, route oral. As to conditions: in vivo.
The nature of data set [14]: Relative fraction unbound in mouse assessed as ratio of fraction unbound in mouse at 1 mg/kg, po to IC50 for NF-kappaB transrepression activity in A549 cells expressing MMTV reporter gene. Format: ADME, organism-based. More on the design: dose 1 mg/kg, route oral. As to conditions: in vivo.
The nature of data set [15]: Plasma concentration in mouse bearing mouse NIH-3T3 cells integrated with MMTV reporter gene at 0.1 mg/kg, po after 1 hr. It counts as ADME, organism-based, NIH3T3. More on the design: dose 0.1 mg/kg, route oral.
Data set [16] can be described thus: Relative fraction unbound in mouse assessed as ratio of fraction unbound in mouse at 0.1 mg/kg, po to IC50 for NF-kappaB transrepression activity in A549 cells expressing MMTV reporter gene. Format: ADME, organism-based. Also noted: dose 0.1 mg/kg, route oral. As to conditions: in vivo.
For data set [17], the system named is Mus musculus. The data set can be described thus: Inhibition of IL1-induced circulating IL6 release in mouse at 10 mg/kg, po. It counts as functional.
The test system of data set [18] is Mus musculus. The data set can be described thus: Inhibition of IL1-induced circulating IL6 release in mouse at 1 mg/kg, po. It counts as functional.
Data set [19] deals with Mus musculus. The data set can be described thus: Inhibition of IL1-induced circulating IL6 release in mouse at 0.1 mg/kg, po. Format: functional.
Data set [20] deals with Mus musculus. Briefly: Inhibition of IL1-induced circulating IL6 release in mouse at 100 mg/kg, po. Format: functional.
The next data set has as its target T2, Androgen receptor (Homo sapiens, UniProt P10275).
T2 sequence (P10275 whole entry): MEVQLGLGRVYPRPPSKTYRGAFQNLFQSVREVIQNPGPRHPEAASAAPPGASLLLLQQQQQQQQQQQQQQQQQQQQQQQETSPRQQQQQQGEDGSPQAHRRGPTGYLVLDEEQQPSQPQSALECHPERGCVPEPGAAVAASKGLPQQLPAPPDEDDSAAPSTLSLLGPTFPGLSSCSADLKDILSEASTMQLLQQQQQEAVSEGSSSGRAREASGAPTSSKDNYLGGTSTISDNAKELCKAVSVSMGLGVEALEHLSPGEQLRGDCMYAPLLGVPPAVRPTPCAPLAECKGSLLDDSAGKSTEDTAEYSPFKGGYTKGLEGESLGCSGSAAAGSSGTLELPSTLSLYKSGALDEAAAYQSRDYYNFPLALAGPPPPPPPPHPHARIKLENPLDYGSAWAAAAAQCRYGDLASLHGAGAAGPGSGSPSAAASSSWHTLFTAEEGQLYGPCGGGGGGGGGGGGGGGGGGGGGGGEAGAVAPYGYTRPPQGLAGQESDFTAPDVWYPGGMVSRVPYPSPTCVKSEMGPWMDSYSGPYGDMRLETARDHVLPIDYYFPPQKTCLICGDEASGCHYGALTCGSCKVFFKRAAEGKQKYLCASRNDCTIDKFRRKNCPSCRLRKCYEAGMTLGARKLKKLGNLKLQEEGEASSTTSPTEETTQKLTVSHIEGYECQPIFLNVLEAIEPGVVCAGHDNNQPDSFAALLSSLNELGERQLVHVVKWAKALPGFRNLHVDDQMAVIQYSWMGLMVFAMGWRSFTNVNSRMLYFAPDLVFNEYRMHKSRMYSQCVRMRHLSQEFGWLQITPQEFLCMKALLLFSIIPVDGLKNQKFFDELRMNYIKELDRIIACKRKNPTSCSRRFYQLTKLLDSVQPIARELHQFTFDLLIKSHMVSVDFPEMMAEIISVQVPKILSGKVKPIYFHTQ

Consider `O=S(=O)(Cc1ccccc1)Nc1ccc(-c2ccc3c(cnn3-c3ccc(F)cc3)c2)c(C(F)(F)F)c1`, for which the IC50 on Glucocorticoid receptor [1] was 10 nM; in [3] it was 3.16 nM; in data set [4], 1.26 nM; against Androgen receptor, greater than 10 µM. The EC50 at Glucocorticoid receptor [2] is 20 nM. Moreover, the Activity entry with Hepatocyte is reported as “Toxic”. Moreover, the half-life in [5] was 198 min; in data set [8], 240 min. In addition, the bioavailability in data set [6] was greater than 22%; in data set [9] it was greater than 51%. Besides, the Vd in [7] was found to be 1.8 L/kg. In addition, in data set [10], the Tmax is 6 h. Besides, the “fold change (FC)” value in data set [11] turned out to be 0.5; in data set [13], 29; in data set [14] it was 0.06; in [16], 0.005. For the same compound, the concentration at 1 h in data set [12] was 290 nM; in data set [15], 25 nM. Moreover, in the data set on Mus musculus [17], 10 mg/kg produced 44% inhibition in vivo. Also, the inhibition in vivo at 1 mg/kg in the data set on Mus musculus [18] stood at 0%. Also, the inhibition in vivo at 0.1 mg/kg in the data set on Mus musculus [19] was 0%. This compound also gave an inhibition in vivo at 100 mg/kg with Mus musculus [20] of 57%.
